The source of these data is ChEMBL document CHEMBL1201862, “PubChem BioAssay data set” (2004).

Structures are written as SMILES.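 All cell lines were grown in 96-well plates and treated with compound for 48 hours. The concentration for 50% growth inhibition is given as GI50.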 The source made the active and inactive calls. No stated cut-off is given here; in the data, active = GI50 up to about 1.1 µM and inactive = higher. Where a SMILES comes first, the peptide text is derived from it. [ ]: non-standard residue; d: D form. The star is where a group is joined. Phe(4-NO2) = N[CH](Cc1ccc([N+](=O)[O-])cc1)C(=O)O; Boc = CC(C)(C)OC(=O)* Bounds are passed on as bounds.

Test systems include SN12C; PC-3; HCC 2998; M14; RXF 393; HOP-62; NCI/ADR-RES; SNB-75; 786-0; SK-OV-3; NCI-H226; HL-60; SK-MEL-28; OVCAR-8; OVCAR-4; Hs-578T; U-251; IGROV-1; TK-10; DU-145.
Test in all cases: growth of human tumour cells (NCI), 48 h

For the molecule `O=C(O/N=c1/ccc(=O)/c(=N\OC(=O)c2ccccc2)c1=O)c1ccccc1`, the GI50 in the assay on SN12C was > 100 µM (inactive); in the assay on PC-3, 76.4 µM (inactive); in the assay on HCC 2998 it was > 100 µM (inactive); in the assay with M14, > 100 µM (inactive); in the assay on RXF 393 it was > 100 µM (inactive); in the assay with HOP-62 it was > 100 µM (inactive). In addition, the GI50 with NCI/ADR-RES is > 100 µM (inactive); with SNB-75, > 100 µM (inactive); with 786-0, > 100 µM (inactive); with SK-OV-3 it was > 100 µM (inactive); in the assay with NCI-H226, > 100 µM (inactive); in the assay with HL-60, 0.857 µM (active). Besides, the GI50 was > 100 µM (inactive) with SK-MEL-28; > 100 µM (inactive) with OVCAR-8; > 100 µM (inactive) with OVCAR-4; > 100 µM (inactive) in the assay on Hs-578T; > 100 µM (inactive) with U-251; 89.3 µM (inactive) in the assay with IGROV-1. Besides, the GI50 in the assay with TK-10 is > 100 µM (inactive).
Take `C[C@H]1C(OCCOC2O[C@@H]3O[C@@]4(C)CC[C@H]5[C@H](C)CCC([C@H]2C)[C@@]35O4)O[C@@H]2O[C@@]3(C)CC[C@H]4[C@H](C)CCC1[C@@]24O3` (stereo partly specified): the GI50 in the assay with SN12C was 21 µM (inactive); in the assay with PC-3, 28.5 µM (inactive); with HCC 2998 it was 21.6 µM (inactive); in the assay on M14, 32.1 µM (inactive); in the assay with HOP-62 it was 37.7 µM (inactive); with NCI/ADR-RES it was 25.1 µM (inactive). Moreover, the GI50 in the assay with SNB-75 is 25.9 µM (inactive); with 786-0, 27 µM (inactive); with SK-OV-3, 74.6 µM (inactive); with NCI-H226, 28.2 µM (inactive); with HL-60 it was 24.9 µM (inactive); with SK-MEL-28, 61.5 µM (inactive). The GI50 with OVCAR-8 is 5.3 µM (inactive); in the assay on OVCAR-4, 80.5 µM (inactive); in the assay with U-251, 40.9 µM (inactive); with IGROV-1, 24.8 µM (inactive); with DU-145, 19.5 µM (inactive).
Turning to `CCOC(=O)CCC(NC(=O)C(Cc1ccc([N+](=O)[O-])cc1)NC(=O)OC(C)(C)C)C(=O)NC(CCC(=O)OCC)C(=O)OCC` (stereo unspecified) (Boc-[Phe(4-NO2)]-Glu(OEt)-Glu(OEt)-OEt; configuration not given here), the GI50 is 22.3 µM (inactive) in the assay with SN12C; 19.7 µM (inactive) in the assay on PC-3; 15.8 µM (inactive) in the assay on HCC 2998; 16.8 µM (inactive) with M14; 16.6 µM (inactive) in the assay on RXF 393; 24.2 µM (inactive) in the assay with HOP-62. In addition, the GI50 in the assay with SNB-75 is 15.6 µM (inactive); in the assay on 786-0, 16.8 µM (inactive); in the assay with NCI-H226, 16.8 µM (inactive); in the assay with HL-60, 14.9 µM (inactive); with SK-MEL-28, 15.6 µM (inactive); in the assay with OVCAR-8 it was 18.5 µM (inactive). Besides, the GI50 is 18.7 µM (inactive) with Hs-578T, 19.8 µM (inactive) with U-251, 20.3 µM (inactive) in the assay with IGROV-1 and 15.5 µM (inactive) in the assay with TK-10.
In the case of `COc1ccc(/C=N\N2CC(=O)N3C4C=CC(CC4)N3C2=O)cc1` (stereo unspecified), the GI50 is > 100 µM (inactive) in the assay with SN12C; > 100 µM (inactive) in the assay on PC-3; > 100 µM (inactive) in the assay with M14; 46.7 µM (inactive) in the assay with HOP-62; 81.8 µM (inactive) in the assay on NCI/ADR-RES; 22.2 µM (inactive) in the assay with SNB-75. Moreover, the GI50 is > 100 µM (inactive) in the assay on 786-0; > 100 µM (inactive) with SK-OV-3; > 100 µM (inactive) in the assay with NCI-H226; 53.1 µM (inactive) with HL-60; > 100 µM (inactive) in the assay on SK-MEL-28; 58.1 µM (inactive) in the assay on OVCAR-8. Moreover, the GI50 is 46.3 µM (inactive) with Hs-578T; > 100 µM (inactive) in the assay on U-251; > 100 µM (inactive) in the assay with IGROV-1; > 100 µM (inactive) in the assay on DU-145; > 100 µM (inactive) with TK-10.
Turning to `O=C(O)C(NCc1ccccc1)C(NCc1ccccc1)C(=O)O` (stereo unspecified), the GI50 in the assay with SN12C, in the assay on HCC 2998, with M14, in the assay with HOP-62, with NCI/ADR-RES and in the assay with SNB-75 was > 100 µM (inactive) throughout. In addition, the GI50 in the assay with 786-0, with SK-OV-3, in the assay with NCI-H226, in the assay with HL-60, in the assay on SK-MEL-28 and with OVCAR-8 was > 100 µM (inactive) each time. For the same molecule, the GI50 with OVCAR-4, in the assay on Hs-578T, in the assay with U-251, with IGROV-1, in the assay on DU-145 and in the assay with TK-10 was > 100 µM (inactive) each time.
Consider `C=C(CCC/C(C)=C/C=C/[C@@H](C)CCCc1ccoc1)C[C@@H]1OC(=O)[C@H](C)[C@@H]1O`, for which the GI50 with SN12C was 9.68 µM (inactive); in the assay on PC-3, 7.31 µM (inactive); in the assay with HCC 2998, 11.6 µM (inactive); in the assay on M14 it was 9.33 µM (inactive); with RXF 393, 10.3 µM (inactive); with HOP-62, 8.69 µM (inactive). Besides, the GI50 is 9.04 µM (inactive) with NCI/ADR-RES; 9.77 µM (inactive) in the assay on SNB-75; 10.8 µM (inactive) in the assay with 786-0; 7.46 µM (inactive) in the assay with SK-OV-3; 6.43 µM (inactive) with NCI-H226; 10.1 µM (inactive) with SK-MEL-28. The GI50 in the assay on OVCAR-8 is 10.1 µM (inactive); with OVCAR-4, 10.2 µM (inactive); in the assay on U-251 it was 11 µM (inactive); in the assay with IGROV-1, 10.7 µM (inactive); in the assay on DU-145 it was 10.6 µM (inactive); in the assay on TK-10, 13.1 µM (inactive).
As for `CCOC(=O)C(C)c1nc2c(Cl)c3ncccc3cc2[nH]c1=O` (stereo unspecified), the GI50 with SN12C is > 100 µM (inactive); in the assay with PC-3, 40.7 µM (inactive); in the assay with M14, 44.8 µM (inactive); in the assay on RXF 393 it was 62.8 µM (inactive); in the assay with HOP-62 it was 34.1 µM (inactive); with NCI/ADR-RES, 29.9 µM (inactive). Besides, the GI50 is 62.2 µM (inactive) with SNB-75; > 100 µM (inactive) with 786-0; > 100 µM (inactive) in the assay with SK-OV-3; 53.3 µM (inactive) in the assay on NCI-H226; > 100 µM (inactive) in the assay on SK-MEL-28; 36.5 µM (inactive) in the assay on OVCAR-8. In addition, the GI50 is 57.9 µM (inactive) with OVCAR-4; 23.2 µM (inactive) in the assay on Hs-578T; 30.8 µM (inactive) in the assay with U-251; 62.2 µM (inactive) in the assay with IGROV-1; > 100 µM (inactive) in the assay with DU-145; 59.7 µM (inactive) with TK-10.
Consider `CSC1=Nc2ccccc2-c2nc(-c3ccccc3)cc(-c3ccccc3)c2C1`, for which the GI50 is 28.2 µM (inactive) with SN12C; 21.4 µM (inactive) in the assay with PC-3; 41.6 µM (inactive) in the assay on HCC 2998; 13.9 µM (inactive) in the assay with M14; 6.5 µM (inactive) in the assay on RXF 393; 19.8 µM (inactive) in the assay on HOP-62. The GI50 with NCI/ADR-RES is 19.7 µM (inactive); in the assay with SNB-75, 4.26 µM (inactive); in the assay with 786-0 it was 10.2 µM (inactive); in the assay on SK-OV-3, 12.2 µM (inactive); in the assay on NCI-H226, 87.9 µM (inactive); with HL-60, > 100 µM (inactive). Also, the GI50 with SK-MEL-28 was 35.6 µM (inactive); in the assay with OVCAR-8, 9.98 µM (inactive); in the assay on OVCAR-4, 8.93 µM (inactive); in the assay on U-251 it was 7.03 µM (inactive); in the assay on IGROV-1, 10 µM (inactive); in the assay with DU-145, 60.4 µM (inactive). In the assay on TK-10, the GI50 is 16.2 µM (inactive).
`COc1cc(CC(C)=O)cc(OC)c1`: the GI50 in the assay with SN12C was 46.8 µM (inactive); in the assay with PC-3, 11.3 µM (inactive); with HCC 2998 it was > 100 µM (inactive); with M14, > 100 µM (inactive); with HOP-62, > 100 µM (inactive); in the assay with NCI/ADR-RES, 52.4 µM (inactive). Further, the GI50 with SNB-75 was 17.9 µM (inactive); with 786-0, > 100 µM (inactive); in the assay on SK-OV-3, > 100 µM (inactive); in the assay on NCI-H226, 50.9 µM (inactive); with HL-60 it was 27.3 µM (inactive); with SK-MEL-28, > 100 µM (inactive). Also, the GI50 in the assay with OVCAR-8 was > 100 µM (inactive); with OVCAR-4, > 100 µM (inactive); with U-251, 63.5 µM (inactive); in the assay with IGROV-1, 74.1 µM (inactive); in the assay on DU-145 it was > 100 µM (inactive); with TK-10, > 100 µM (inactive).
As for `CCCCNC(=S)Nc1nc(C(=O)NNC(=S)NCc2ccccc2)cs1`, the GI50 in the assay with SN12C is 31 µM (inactive); with PC-3, 62.1 µM (inactive); in the assay on HCC 2998 it was 36.6 µM (inactive); with M14, 38.6 µM (inactive); in the assay with HOP-62, > 100 µM (inactive); in the assay on NCI/ADR-RES it was 30.1 µM (inactive). The GI50 in the assay with 786-0 is 39.4 µM (inactive); in the assay on SK-OV-3 it was 88.5 µM (inactive); in the assay on NCI-H226, 32.9 µM (inactive); with OVCAR-8, 24.1 µM (inactive); in the assay with OVCAR-4, 35.3 µM (inactive); in the assay with U-251, 34.5 µM (inactive). Moreover, the GI50 was 30.1 µM (inactive) in the assay with IGROV-1, 39.6 µM (inactive) in the assay on DU-145 and 49.8 µM (inactive) in the assay with TK-10.
With `CNC(Cc1ccccc1)c1cccc(OC)c1O` (stereo unspecified), the GI50 is > 100 µM (inactive) with SN12C; 60.7 µM (inactive) with PC-3; > 100 µM (inactive) with M14; > 100 µM (inactive) in the assay with RXF 393; > 100 µM (inactive) in the assay on HOP-62; > 100 µM (inactive) with NCI/ADR-RES. Further, the GI50 in the assay on 786-0, with NCI-H226, with SK-MEL-28, with OVCAR-8, in the assay on OVCAR-4 and with Hs-578T was > 100 µM (inactive) each time. Besides, the GI50 in the assay with U-251, with IGROV-1, with DU-145 and in the assay on TK-10 was > 100 µM (inactive) throughout.
